Data: article PMC4728423, “Natural and synthetic flavonoid modulation of TRPC5 channels” (British Journal of Pharmacology, 2016)
Like-named read-outs stand apart in the source and are kept apart here.

Legend:
human TRPC5 [1] = biological target: T1, human TRPC5 (Homo sapiens, UniProt Q9UL62); assay: Whole-cell patch clamp of TRPC5-expressing (Tet+) HEK 293 cells; type: cell-based
T1 construct: expressed in transfected cells
T1 sequence (Q9UL62 1-973): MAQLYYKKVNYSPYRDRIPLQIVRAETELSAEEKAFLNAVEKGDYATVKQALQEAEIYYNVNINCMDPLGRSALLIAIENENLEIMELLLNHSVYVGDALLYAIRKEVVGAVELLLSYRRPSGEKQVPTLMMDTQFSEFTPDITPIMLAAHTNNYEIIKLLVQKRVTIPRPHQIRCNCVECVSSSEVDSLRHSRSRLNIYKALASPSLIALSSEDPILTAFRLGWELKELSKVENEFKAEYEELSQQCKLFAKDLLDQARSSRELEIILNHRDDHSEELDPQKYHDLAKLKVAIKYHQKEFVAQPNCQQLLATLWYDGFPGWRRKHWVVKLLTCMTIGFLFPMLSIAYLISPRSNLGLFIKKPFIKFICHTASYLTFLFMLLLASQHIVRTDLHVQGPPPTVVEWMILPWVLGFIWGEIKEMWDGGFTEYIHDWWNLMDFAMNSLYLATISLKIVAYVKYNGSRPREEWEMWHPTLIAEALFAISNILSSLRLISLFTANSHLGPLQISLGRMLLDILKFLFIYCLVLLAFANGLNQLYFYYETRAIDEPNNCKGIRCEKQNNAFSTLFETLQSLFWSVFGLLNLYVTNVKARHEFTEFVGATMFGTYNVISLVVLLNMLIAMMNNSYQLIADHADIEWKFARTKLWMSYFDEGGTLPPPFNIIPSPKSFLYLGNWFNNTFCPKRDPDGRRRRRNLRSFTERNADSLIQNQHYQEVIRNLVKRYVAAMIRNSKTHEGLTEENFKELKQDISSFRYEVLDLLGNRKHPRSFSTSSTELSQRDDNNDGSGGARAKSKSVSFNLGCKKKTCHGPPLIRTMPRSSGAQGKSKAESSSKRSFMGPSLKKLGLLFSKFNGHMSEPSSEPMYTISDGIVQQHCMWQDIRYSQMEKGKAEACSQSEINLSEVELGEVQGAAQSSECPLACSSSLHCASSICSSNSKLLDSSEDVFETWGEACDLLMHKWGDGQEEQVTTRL

human TRPC5 [2] = biological target: T1, human TRPC5; assay: Outside-out patch recordings from TRPC5 Tet+ cells; type: cell-based; conditions: 10 μM compound, 100 μM Gd3+
[3] = biological target: endogenous TRPC5-containing channels (Mus musculus, UniProt Q9QX29); assay: Ca2+ entry through endogenous channels in differentiated 3T3-L1 cells; type: cell-based; conditions: estimated
Procedure: The 3T3‐L1 cell line was obtained from the American Type Culture Collection and cultured in DMEM‐F12 containing 10% fetal calf serum (FCS), 100 U·mL^−1 penicillin and 100 μg·mL^−1 streptomycin. To induce differentiation, cells were grown to confluence, and 2 days post‐confluence, the medium was changed to a medium containing 5 μg·mL^−1 insulin, 0.25 μM dexamethasone and 0.5 mM IBMX with 10% FCS and antibiotics. After 48 h, medium was changed to a maintenance medium containing 5 μg·mL^−1 insulin, 10% FCS and antibiotics. Cells were fed with fresh maintenance medium every 2 days until the day of experiments. For all experiments, cells were differentiated for 12–16 days.
Induced (Tet+) and non‐induced (Tet−) cells were plated in poly‐d‐lysine‐coated black 96‐well plates (Corning, Corning, NY, USA) at a confluence of 90% 24 h before experimentation. […] Cells were washed three times with SBS before measurements were made at room temperature (21 ± 2 °C) on a 96‐well fluorescence plate reader (FlexStation II^384, Molecular Devices, Sunnyvale, CA, USA). […] Readings were made every 10 s. Fura‐2 measurements are shown as the fluorescence (F) ratio or change (Δ) in this ratio. Fluo‐4 and XRhod‐1 measurements are shown as absolute fluorescence in arbitrary units or changes in this fluorescence (ΔF). […]

Cav1.2 channels = system: Cav1.2 channels; design: method as in Saponara et al., 2011; conditions: smooth muscle; ref Saponara et al., 2011; cited from earlier work
human TRPC5 [4] = biological target: T1, human TRPC5; assay: Gd3+-evoked Ca2+ entry in TRPC5-expressing (Tet+) HEK 293 cells; type: cell-based; conditions: for IC50: TRPC5 (Tet+) HEK 293, 50 μM Gd3+, fluo-4, 30 min pretreatment, read-out: IC50, inhibition of Gd3+-evoked Ca2+ entry; for effect on Gd3+-evoked Ca2+ entry (natural flavonoid screen): XRhod-1
3T3-L1 cells = conditions: cited from earlier work
BKCa channels = system: BKCa channels; design: method as in Cogolludo et al., 2007; Xu et al., 2008b; conditions: ref Cogolludo et al., 2007; Xu et al., 2008b; cited from earlier work
[5] = system: GABA-evoked ionic currents; design: method as in Goutman et al., 2003; conditions: ref Goutman et al., 2003; cited from earlier work

Sequence of endogenous TRPC5-containing channels (Q9QX29 whole entry): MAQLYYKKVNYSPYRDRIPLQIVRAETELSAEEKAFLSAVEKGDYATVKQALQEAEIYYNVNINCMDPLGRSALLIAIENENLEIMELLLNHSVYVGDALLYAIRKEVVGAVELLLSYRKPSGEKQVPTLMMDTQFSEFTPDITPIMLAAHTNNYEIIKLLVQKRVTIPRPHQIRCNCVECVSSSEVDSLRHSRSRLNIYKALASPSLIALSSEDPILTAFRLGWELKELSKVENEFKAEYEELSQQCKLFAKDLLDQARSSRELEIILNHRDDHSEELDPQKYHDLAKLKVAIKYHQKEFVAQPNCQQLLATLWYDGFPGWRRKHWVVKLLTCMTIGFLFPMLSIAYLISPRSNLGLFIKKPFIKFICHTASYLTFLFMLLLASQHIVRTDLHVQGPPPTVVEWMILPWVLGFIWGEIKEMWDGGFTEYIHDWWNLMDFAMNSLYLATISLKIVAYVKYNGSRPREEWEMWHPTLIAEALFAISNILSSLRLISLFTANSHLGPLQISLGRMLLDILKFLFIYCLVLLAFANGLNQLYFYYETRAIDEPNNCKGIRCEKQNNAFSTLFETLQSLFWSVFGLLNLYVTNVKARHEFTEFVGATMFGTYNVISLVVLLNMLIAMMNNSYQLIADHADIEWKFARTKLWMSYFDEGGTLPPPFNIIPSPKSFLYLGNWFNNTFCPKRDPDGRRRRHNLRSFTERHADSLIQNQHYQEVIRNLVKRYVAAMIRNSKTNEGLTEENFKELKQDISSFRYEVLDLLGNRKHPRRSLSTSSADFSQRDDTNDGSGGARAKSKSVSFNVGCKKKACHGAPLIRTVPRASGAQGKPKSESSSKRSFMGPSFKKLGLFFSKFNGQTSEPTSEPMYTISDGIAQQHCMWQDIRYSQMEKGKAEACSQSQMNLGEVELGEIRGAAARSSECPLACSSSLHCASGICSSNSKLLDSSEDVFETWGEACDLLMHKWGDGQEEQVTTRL
Sequence of endogenous TRPC5-containing channels (Q61056 whole entry partner): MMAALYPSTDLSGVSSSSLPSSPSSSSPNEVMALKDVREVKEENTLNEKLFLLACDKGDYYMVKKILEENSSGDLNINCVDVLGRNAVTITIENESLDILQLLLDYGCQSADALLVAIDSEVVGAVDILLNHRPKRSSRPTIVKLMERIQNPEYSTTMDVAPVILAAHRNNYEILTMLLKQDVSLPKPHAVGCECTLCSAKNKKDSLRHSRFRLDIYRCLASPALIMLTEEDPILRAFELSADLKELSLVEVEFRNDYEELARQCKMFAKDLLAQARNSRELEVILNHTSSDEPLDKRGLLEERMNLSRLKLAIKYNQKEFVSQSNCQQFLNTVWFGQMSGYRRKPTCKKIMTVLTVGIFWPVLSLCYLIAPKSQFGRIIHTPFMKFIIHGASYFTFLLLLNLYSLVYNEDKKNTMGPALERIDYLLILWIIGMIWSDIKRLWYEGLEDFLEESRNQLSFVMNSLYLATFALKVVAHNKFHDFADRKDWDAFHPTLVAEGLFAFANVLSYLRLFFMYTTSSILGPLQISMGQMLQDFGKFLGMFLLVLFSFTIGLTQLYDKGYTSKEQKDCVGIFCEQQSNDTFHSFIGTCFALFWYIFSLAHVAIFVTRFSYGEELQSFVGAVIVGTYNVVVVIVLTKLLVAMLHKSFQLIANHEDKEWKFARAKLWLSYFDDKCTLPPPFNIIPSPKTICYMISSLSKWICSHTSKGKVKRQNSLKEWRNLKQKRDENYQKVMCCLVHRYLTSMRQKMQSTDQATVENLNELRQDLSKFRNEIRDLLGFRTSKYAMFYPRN

| SMILES | effect on Cav1.2 channels (Cav1.2 channels) | IC50 (human TRPC5 [4]) | effect on BKCa channels (BKCa channels) | effect on Gd3+-evoked Ca2+ entry (natural flavonoid screen) (human TRPC5 [4]; 10 μM, 50 μM Gd3+) | also measured |
| --- | --- | --- | --- | --- | --- |
| NCCOB(c1ccccc1)c1ccccc1 [2‐aminoethoxydiphenylborate] | – | – | – | – | effect on TRPC5 whole-cell current after galangin (human TRPC5 [1]; 75 μM, applied after Gd3+ and galangin): further inhibited the current |
| O=c1c(O)c(-c2ccccc2)oc2cc(O)cc(O)c12 [Galangin] | inhibited | 0.45 µM | – | – | effect on TRPC5-mediated current in excised outside-out patches (human TRPC5 [2]): inhibited; IC50 ([3]; fluo-4, 20 μM La3+, read-out: IC50 for inhibition of La3+-evoked Ca2+ entry): 6.05 µM; IC50 ([3]; fluo-4, constitutive activity, read-out: IC50 for inhibition of basal Ca2+): 1.85 µM; effect on Gd3+-evoked TRPC5-mediated whole-cell current (human TRPC5 [1]; 10 μM compound, 30 μM Gd3+, Ca2+ or Ba2+ in bath): effective; time to effect on whole-cell current (human TRPC5 [1]; 10 μM, 30 μM Gd3+): ≤ 2 min; effect on TRPC5 current stimulated by S1P (human TRPC5 [1]; whole-cell, 10 μM compound, 5 μM S1P): effective; reversibility on washout (human TRPC5 [1]; whole-cell, 10 μM, Gd3+-evoked current): not readily reversed on washout; effect on Gd3+-evoked Ca2+ signal (natural product screen) (human TRPC5 [4]; 10 μM, 30 min pre-incubation, 50 μM Gd3+, fluo-4): inhibitory; effect in 3T3-L1 cells / on adipocyte differentiation (3T3-L1 cells; ref Jung et al., 2012): anti‐adipogenic effects |
| O=c1c(O)c(-c2ccc(O)cc2)oc2cc(O)cc(O)c12 [Kaempferol] | stimulators | 3.9 µM | stimulated | inhibitors | – |
| O=c1cc(-c2ccc(O)c(O)c2)oc2cc(O)cc(O)c12 [Luteolin] | – | > 10 µM | – | – | – |
| O=c1c(O)c(-c2cc(O)c(O)c(O)c2)oc2cc(O)cc(O)c12 [Myricetin] | stimulators | > 10 µM | – | – | – |
| O=c1c(O)c(-c2ccc(O)c(O)c2)oc2cc(O)cc(O)c12 [Quercetin] | stimulators | 6.5 µM | stimulated | inhibitors | effect on GABA-evoked ionic currents [5]: inhibited; effect on 3T3-L1 cell growth and apoptosis (3T3-L1 cells; ref Hsu and Yen, 2006): inhibited |
